Assay results taken from patent US20030082787A1, “Plant histidine biosynthetic enzymes” (priority 2001, published 2003).

System: HisA enzyme from Nicotiana Plumbaginifolia
Test: HisA enzyme activity assay (INT/PMS dye, absorbance at 530 nm)
Assay type: biochemical
Conditions: partially purified recombinant enzyme expressed in E. coli BL21 (DE3); 0.2 M Triethanolamine pH 8.5, 30° C.; read-out: Km for substrate
Description: The HisA enzyme from Nicotiana Plumbaginifolia was partially purified and assayed as follows. A plasmid clone with the cDNA insert in the correct orientation relative to the T7 promoter was transformed into E. coli strain BL21 (DE3) (Studier et al. (1986) J. Mol. Biol. 189:113-130). Cultures are grown in LB medium carbenicillin ([…]) at 28° C. to an optical denisity of 0.44 at 600 nm. Each liter of LB/carbenicillin was inoculated with 20 mL of the overnight culture. These one liter cultures were incubated at 26° C. with agitation for 21 hours. HisA expression was induced as described above. The cells were harvested by centrifugation and frozen at −80° C.
Each gram of cell paste was resuspended in two milliliters of 20 mM Triethanolamine buffer at pH 8.3 containing Complete™ protease inhibitors (Boehringer Mannheim) and 1 mM EDTA. The cells were disrupted by three passes through a microfluidizer and the lysed cell debris was removed by centrifugation. The supernatant was treated with streptomycin sulfate which was added to a final concentration of 1%. […]
HisA enzyme activity was assayed essentially as described by Margolies et al., (1966) J. Biol. Chem. 241:3262-3269. […] Blank reactions containing either no enzyme or no substrate were also prepared to control for background absorbance. […] The absorbance at 530 nm was measured.

SMILES: NC(=O)c1ncn([C@@H]2O[C@H](COP(=O)(O)O)[C@@H](O)[C@H]2O)c1N=CN[C@@H]1O[C@H](COP(=O)(O)O)[C@@H](O)[C@H]1O [5′ Profar, N1-[(5′-phospho-b-D-ribosyl)formimino]-5-aminoimidazole-4-carboxamide ribonucleotide]
- Km: 200 µM
